In patent US20100215579A1, “PHEN-NAPHTHALENE AND PHEN-QUINOLINE DERIVATIVES AND THEIR USE FOR BINDING AND IMAGING AMYLOID PLAQUES” (The Trustees of the University of Pennsylvania, priority 2007, published 2010):

Key:
amyloid plaques = target: T1, amyloid plaques (Homo sapiens, UniProt P05067); test: Ki values of Phen-Nap, Nap-Phen derivatives (Ki binding data)
T1 construct: fibrillary Aβ plaques consisting predominately of aggregates of Aβ40 and Aβ42 peptides

[1] = Log P (octanol/Na2HPO4 buffer pH 7.4); type: physicochemical; settings: pH 7.4
[2] = Biodistribution in ICR mice after an iv injection; type: in vivo
How it was run: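 Mice received an iv injection of the [^18F] tracer in 1%, 3% or 5% EtOH/0.1% BSA in water, depending on tracer. Organ radioactivity is given as % dose/organ and % dose/g, mean of 3 mice ±SD.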

[3] = Blood, 2 min after iv injection
[4] = Blood, 30 min after iv injection
[5] = Bone, 30 min after iv injection
[6] = Brain, 2 min after iv injection
[7] = Brain, 30 min after iv injection
[8] = Heart, 2 min after iv injection
[9] = Heart, 30 min after iv injection
[10] = Kidney, 2 min after iv injection
[11] = Kidney, 30 min after iv injection
[12] = Kidney, 1 hr after iv injection
[13] = Kidney, 2 hr after iv injection
[14] = Liver, 2 min after iv injection
[15] = Liver, 30 min after iv injection
[16] = Lung, 30 min after iv injection
[17] = Muscle, 2 min after iv injection
[18] = Muscle, 30 min after iv injection
[19] = Muscle, 1 hr after iv injection
[20] = Muscle, 2 hr after iv injection
[21] = Skin, 30 min after iv injection
[22] = Spleen, 2 min after iv injection
[23] = Spleen, 30 min after iv injection
[24] = Spleen, 1 hr after iv injection
[25] = Spleen, 2 hr after iv injection

T1 sequence (P05067 672-713 limits assumed): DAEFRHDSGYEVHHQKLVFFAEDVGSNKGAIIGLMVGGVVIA
T1 sequence (P05067 672-711 limits assumed): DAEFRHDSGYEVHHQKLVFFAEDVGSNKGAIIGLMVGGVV

## CNc1ccc(-c2ccc3cc(OCCOCCOCCF)ccc3c2)cc1 [Compound 13a, 4-(6-(2-(2-(2-fluoroethoxy)ethoxy)ethoxy)naphthalen-2-yl)-N-methylbenzenamine]
Amyloid plaques
  Ki: 1.6 nM
[1]
  logP: 3.22

## CNc1ccc2cc(-c3ccc(OCCOCCOCC[18F])cc3)ccc2c1 [[^18F]19a]
[2]; [3]
  % dose/g: 6.66 ± 0.86 % dose/g
  % dose/organ: 11.1 ± 0.91 % dose/organ
[2]; [4]
  % dose/g: 4.15 ± 0.59 % dose/g
  % dose/organ: 6.94 ± 0.59 % dose/organ
[2]; Blood, 1 hr after iv injection
  % dose/g: 3.14 ± 0.37 % dose/g
  % dose/organ: 4.94 ± 0.09 % dose/organ
[2]; Blood, 2 hr after iv injection
  % dose/g: 3.05 ± 0.26 % dose/g
  % dose/organ: 5.19 ± 0.14 % dose/organ
[2]; Bone, 2 min after iv injection
  % dose/g: 1.32 ± 0.18 % dose/g
  % dose/organ: 4.42 ± 0.82 % dose/organ
[2]; [5]
  % dose/g: 0.78 ± 0.10 % dose/g
  % dose/organ: 2.59 ± 0.17 % dose/organ
[2]; Bone, 1 hr after iv injection
  % dose/g: 0.82 ± 0.21 % dose/g
  % dose/organ: 2.60 ± 0.41 % dose/organ
[2]; Bone, 2 hr after iv injection
  % dose/g: 1.37 ± 0.15 % dose/g
  % dose/organ: 4.67 ± 0.26 % dose/organ
[2]; [6]
  % dose/g: 5.55 ± 0.77 % dose/g
  % dose/organ: 2.51 ± 0.29 % dose/organ
[2]; [7]
  % dose/g: 1.29 ± 0.19 % dose/g
  % dose/organ: 0.59 ± 0.07 % dose/organ
[2]; Brain, 1 hr after iv injection
  % dose/g: 1.05 ± 0.20 % dose/g
  % dose/organ: 0.48 ± 0.06 % dose/organ
[2]; Brain, 2 hr after iv injection
  % dose/g: 0.92 ± 0.10 % dose/g
  % dose/organ: 0.42 ± 0.06 % dose/organ
[2]; [8]
  % dose/g: 5.67 ± 0.42 % dose/g
  % dose/organ: 0.63 ± 0.02 % dose/organ
[2]; [9]
  % dose/g: 1.74 ± 0.19 % dose/g
  % dose/organ: 0.21 ± 0.02 % dose/organ
[2]; Heart, 1 hr after iv injection
  % dose/g: 1.69 ± 0.35 % dose/g
  % dose/organ: 0.18 ± 0.01 % dose/organ
[2]; Heart, 2 hr after iv injection
  % dose/g: 1.40 ± 0.08 % dose/g
  % dose/organ: 0.16 ± 0.01 % dose/organ
[2]; [10]
  % dose/g: 7.88 ± 0.94 % dose/g
  % dose/organ: 3.06 ± 0.21 % dose/organ
[2]; [11]
  % dose/g: 3.61 ± 0.98 % dose/g
  % dose/organ: 1.38 ± 0.26 % dose/organ
[2]; [12]
  % dose/g: 3.82 ± 1.54 % dose/g
  % dose/organ: 1.37 ± 0.25 % dose/organ
[2]; [13]
  % dose/g: 2.41 ± 0.42 % dose/g
  % dose/organ: 0.88 ± 0.12 % dose/organ
[2]; [14]
  % dose/g: 27.0 ± 0.91 % dose/g
  % dose/organ: 32.0 ± 1.81 % dose/organ
[2]; [15]
  % dose/g: 21.5 ± 2.08 % dose/g
  % dose/organ: 25.7 ± 0.95 % dose/organ
[2]; Liver, 1 hr after iv injection
  % dose/g: 14.1 ± 1.85 % dose/g
  % dose/organ: 15.7 ± 1.34 % dose/organ
[2]; Liver, 2 hr after iv injection
  % dose/g: 8.85 ± 0.76 % dose/g
  % dose/organ: 10.6 ± 0.65 % dose/organ
[2]; Lung, 2 min after iv injection
  % dose/g: 9.19 ± 1.18 % dose/g
  % dose/organ: 1.76 ± 0.20 % dose/organ
[2]; [16]
  % dose/g: 3.44 ± 0.49 % dose/g
  % dose/organ: 0.67 ± 0.05 % dose/organ
[2]; Lung, 1 hr after iv injection
  % dose/g: 2.68 ± 0.48 % dose/g
  % dose/organ: 0.41 ± 0.07 % dose/organ
[2]; Lung, 2 hr after iv injection
  % dose/g: 2.48 ± 0.48 % dose/g
  % dose/organ: 0.45 ± 0.11 % dose/organ
[2]; [17]
  % dose/g: 0.77 ± 0.14 % dose/g
  % dose/organ: 7.42 ± 1.87 % dose/organ
[2]; [18]
  % dose/g: 0.75 ± 0.09 % dose/g
  % dose/organ: 7.22 ± 0.42 % dose/organ
[2]; [19]
  % dose/g: 0.87 ± 0.03 % dose/g
  % dose/organ: 7.86 ± 0.68 % dose/organ
[2]; [20]
  % dose/g: 0.62 ± 0.11 % dose/g
  % dose/organ: 6.02 ± 0.62 % dose/organ
[2]; Skin, 2 min after iv injection
  % dose/g: 0.70 ± 0.04 % dose/g
  % dose/organ: 2.51 ± 0.07 % dose/organ
[2]; [21]
  % dose/g: 1.37 ± 0.11 % dose/g
  % dose/organ: 4.93 ± 0.08 % dose/organ
[2]; Skin, 1 hr after iv injection
  % dose/g: 1.32 ± 0.18 % dose/g
  % dose/organ: 4.46 ± 0.05 % dose/organ
[2]; Skin, 2 hr after iv injection
  % dose/g: 0.77 ± 0.13 % dose/g
  % dose/organ: 2.81 ± 0.29 % dose/organ
[2]; [22]
  % dose/g: 6.94 ± 0.99 % dose/g
  % dose/organ: 0.79 ± 0.29 % dose/organ
[2]; [23]
  % dose/g: 5.03 ± 1.18 % dose/g
  % dose/organ: 0.53 ± 0.04 % dose/organ
[2]; [24]
  % dose/g: 3.60 ± 0.15 % dose/g
  % dose/organ: 0.30 ± 0.00 % dose/organ
[2]; [25]
  % dose/g: 3.38 ± 0.52 % dose/g
  % dose/organ: 0.31 ± 0.02 % dose/organ
[1]
  Log P: 2.60
